PubChem BioAssay AID328 (DTP/NCI, 2004)
Values joined by “and” are separate entries in the source; they are usually repeats but may differ in a detail not shown here. Identical values can stand only once. Inconclusive results and toxic doses are left out.

Tested on: BDF1 mice, P388 leukemia ip, median survival T/C
Experiment: NCI In Vivo Anticancer Drug Screen. Data for tumor model P388 Leukemia (intraperitoneal) in B6D2F1 (BDF1) mice
Settings: endpoint: median survival time, higher = longer survival
Procedure, shortened: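 T/C = treated-group survival ÷ vehicle-control survival; tumour transplanted into mice before dosing.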

[1] = dose: 50.0 mg/kg/injection, schedule: Q01DX009 (ip), vehicle: saline
[2] = dose: 100.0 mg/kg/injection, schedule: Q01DX009 (ip), vehicle: saline with Tween-80
[3] = dose: 200.0 mg/kg/injection, schedule: Q01DX009 (ip), vehicle: saline with Tween-80
[4] = dose: 400.0 mg/kg/injection, schedule: Q01DX009 (ip), vehicle: saline with Tween-80
[5] = dose: 100.0 mg/kg/injection, schedule: Q04DX003 (ip), vehicle: Klucel (hydroxypropylcellulose) (HPC)
[6] = dose: 200.0 mg/kg/injection, schedule: Q04DX003 (ip), vehicle: Klucel (hydroxypropylcellulose) (HPC)
[7] = dose: 400.0 mg/kg/injection, schedule: Q04DX003 (ip), vehicle: Klucel (hydroxypropylcellulose) (HPC)

Which results are given for `COc1cc2c(cc1OC)C(CNC(=O)/C=C/c1ccccc1)C2` (stereo not given)?
T/C (dose: 100.0 mg/kg/injection, schedule: Q01DX001 (ip), vehicle: Klucel (hydroxypropylcellulose) (HPC)): 115 % of control; T/C (dose: 200.0 mg/kg/injection, schedule: Q01DX001 (ip), vehicle: Klucel (hydroxypropylcellulose) (HPC)): 110 % of control; T/C (dose: 400.0 mg/kg/injection, schedule: Q01DX001 (ip), vehicle: Klucel (hydroxypropylcellulose) (HPC)): 120 % of control

What does the source list for `O=[N+]([O-])c1ccc(C(F)(F)F)cc1`?
T/C (dose: 25.0 mg/kg/injection, schedule: Q01DX009 (ip), vehicle: other): 109 % of control; T/C (dose: 50.0 mg/kg/injection, schedule: Q01DX009 (ip), vehicle: other): 104 % of control; T/C (dose: 50.0 mg/kg/injection, schedule: Q04DX003 (ip), vehicle: other): 95 % of control; T/C (dose: 100.0 mg/kg/injection, schedule: Q01DX009 (ip), vehicle: other): 113 % of control; T/C (dose: 100.0 mg/kg/injection, schedule: Q04DX003 (ip), vehicle: other): 100 % of control; T/C (dose: 200.0 mg/kg/injection, schedule: Q04DX003 (ip), vehicle: other): 100 % of control

`COC(=O)c1cc(-c2ccccc2)[nH]c1-c1ccccc1` was tested. Which T/C [1] did it give?
Its T/C is 92 % of control.

How did the T/C [2] turn out when `CC(=O)Nc1ccc(C(=O)NN)cc1` was run?
The T/C was 108 % of control.

And the T/C [3]?
The T/C was 105 % of control.

What about the T/C [4] of the same molecule?
The T/C was 97 % of control.

Which T/C (dose: 12.5 mg/kg/injection, schedule: Q04DX003 (ip), vehicle: saline with Tween-80) does the source give for `Cc1ccc(OCc2c(COc3ccc(Cl)cc3)sc3ccc(Cl)cc23)cc1` here?
Its T/C is 95 % of control.

What about the T/C (dose: 25.0 mg/kg/injection, schedule: Q04DX003 (ip), vehicle: saline with Tween-80) of the same molecule?
Its T/C is 87 % of control.

Which results are given for `CCC1CC2CC(c3cc4c(cc3OC)N(C)C3C(O)(C(=O)OC)C(OC(C)=O)C5(CC)C=CCN6CCC43C65)c3[nH]c4ccccc4c3CCN(C1)C2` (stereo not given)?
T/C (dose: 0.03 mg/kg/injection, schedule: Q01DX009 (ip), vehicle: water): 181 % of control; T/C (dose: 0.06 mg/kg/injection, schedule: Q01DX009 (ip), vehicle: water): 100 % of control; T/C (dose: 0.12 mg/kg/injection, schedule: Q01DX009 (ip), vehicle: water): 100 % of control; T/C (dose: 0.25 mg/kg/injection, schedule: Q01DX009 (ip), vehicle: water): 90 % of control and 95 % of control; T/C (dose: 0.25 mg/kg/injection, schedule: Q04DX003 (ip), vehicle: water): 90 % of control; T/C (dose: 0.5 mg/kg/injection, schedule: Q01DX009 (ip), vehicle: water): 100 % of control and 104 % of control; T/C (dose: 0.5 mg/kg/injection, schedule: Q04DX003 (ip), vehicle: water): 95 % of control; T/C (dose: 1.0 mg/kg/injection, schedule: Q01DX009 (ip), vehicle: water): 109 % of control; T/C (dose: 1.0 mg/kg/injection, schedule: Q04DX003 (ip), vehicle: water): 95 % of control; T/C (dose: 2.0 mg/kg/injection, schedule: Q01DX009 (ip), vehicle: water): 104 % of control; T/C (dose: 4.0 mg/kg/injection, schedule: Q04DX003 (ip), vehicle: water): 95 % of control; T/C (dose: 6.0 mg/kg/injection, schedule: Q04DX003 (ip), vehicle: water): 90 % of control; T/C (dose: 5.0 micrograms/kg/injection, schedule: Q01DX009 (ip), vehicle: water): 104 % of control; T/C (dose: 10.0 micrograms/kg/injection, schedule: Q01DX009 (ip), vehicle: water): 102 % of control; T/C (dose: 20.0 micrograms/kg/injection, schedule: Q01DX009 (ip), vehicle: water): 90 % of control; T/C (dose: 40.0 micrograms/kg/injection, schedule: Q01DX009 (ip), vehicle: water): 100 % of control; T/C (dose: 80.0 micrograms/kg/injection, schedule: Q01DX009 (ip), vehicle: water): 92 % of control

How did the T/C [2] turn out when `Nc1nc(N)c(N=O)c(Nc2ccc(Br)cc2)n1` was run?
Its T/C is 104 % of control.

What about the T/C [3] of the same molecule?
The T/C was 113 % of control.

What about the T/C [4] of the same molecule?
The T/C was 95 % of control.

How did the T/C (dose: 6.2 mg/kg/injection, schedule: Q01DX010 (ip), vehicle: saline) turn out when `CCN(CC)CCCC(C)Nc1ccnc2cc(Cl)ccc12` (stereo not given) was run?
The T/C was 100 % of control.

What about the T/C (dose: 12.5 mg/kg/injection, schedule: Q01DX009 (ip), vehicle: saline) of the same molecule?
Its T/C is 113 % of control.

What about the T/C (dose: 12.5 mg/kg/injection, schedule: Q01DX010 (ip), vehicle: saline) of the same molecule?
The T/C was 90 % of control.

And the T/C (dose: 25.0 mg/kg/injection, schedule: Q01DX009 (ip), vehicle: saline)?
The T/C was 109 % of control.

And the T/C (dose: 25.0 mg/kg/injection, schedule: Q01DX010 (ip), vehicle: saline)?
Its T/C is 95 % of control.

And the T/C [1]?
Its T/C is 109 % of control.

And the T/C (dose: 50.0 mg/kg/injection, schedule: Q01DX010 (ip), vehicle: saline)?
Its T/C is 100 % of control.

And the T/C (dose: 75.0 mg/kg/injection, schedule: Q01DX009 (ip), vehicle: saline)?
The T/C was 104 % of control.

What does the source list for `CCCN=C(N)c1ccc(N=C(N)c2ccc(N=C(N)c3ccc(C(N)=NCCC)cc3)cc2)cc1`?
T/C (dose: 10.0 mg/kg/injection, schedule: Q01DX009 (ip), vehicle: saline): 154 % of control; T/C (dose: 15.0 mg/kg/injection, schedule: Q01DX009 (ip), vehicle: saline): 190 % of control

How did the T/C (dose: 25.0 mg/kg/injection, schedule: Q01DX009 (ip), vehicle: saline with Tween-80) turn out when `Cc1cccn2c(C)nnc12` was run?
The T/C was 110 % of control.

And the T/C (dose: 50.0 mg/kg/injection, schedule: Q01DX009 (ip), vehicle: saline with Tween-80)?
The T/C was 101 % of control.

What about the T/C [2] of the same molecule?
The T/C was 99 % of control.

Which T/C (dose: 0.06 mg/kg/injection, schedule: Q01DX009 (ip), vehicle: Klucel (hydroxypropylcellulose) (HPC)) does the source give for `CC1=CC23C(COC(=O)C24CO4)C(C(=O)O)=CC3C1C` (stereo not given) (tested in a mixture with another compound) here?
The T/C was 105 % of control.

What about the T/C (dose: 0.13 mg/kg/injection, schedule: Q01DX009 (ip), vehicle: Klucel (hydroxypropylcellulose) (HPC)) of the same molecule?
Its T/C is 100 % of control.

What about the T/C (dose: 0.25 mg/kg/injection, schedule: Q01DX009 (ip), vehicle: Klucel (hydroxypropylcellulose) (HPC)) of the same molecule?
The T/C was 105 % of control and 116 % of control.

What does the source list for `COc1cc(C=C2C(=O)C=CC2=O)ccc1O`?
T/C (dose: 0.78 mg/kg/injection, schedule: Q01DX009 (ip), vehicle: saline with Tween-80): 116 % of control; T/C (dose: 1.56 mg/kg/injection, schedule: Q01DX009 (ip), vehicle: saline with Tween-80): 104 % of control; T/C (dose: 3.13 mg/kg/injection, schedule: Q01DX009 (ip), vehicle: saline with Tween-80): 112 % of control; T/C (dose: 6.25 mg/kg/injection, schedule: Q01DX009 (ip), vehicle: saline with Tween-80): 110 % of control; T/C (dose: 12.5 mg/kg/injection, schedule: Q01DX009 (ip), vehicle: saline with Tween-80): 95 % of control

For `CC(=O)N/N=C(/C)C(O)(c1ccccc1)c1ccccc1`, which T/C [2] is on record?
Its T/C is 99 % of control.

And the T/C (dose: 100.0 mg/kg/injection, schedule: Q04DX003 (ip), vehicle: saline with Tween-80)?
Its T/C is 103 % of control.

What about the T/C [3] of the same molecule?
Its T/C is 100 % of control.

What about the T/C (dose: 200.0 mg/kg/injection, schedule: Q04DX003 (ip), vehicle: saline with Tween-80) of the same molecule?
Its T/C is 99 % of control.

What about the T/C [4] of the same molecule?
Its T/C is 99 % of control.

What about the T/C (dose: 400.0 mg/kg/injection, schedule: Q04DX003 (ip), vehicle: saline with Tween-80) of the same molecule?
Its T/C is 87 % of control.

Which results are given for `CC(C)C1=C(O)C2=C(C(=O)C1=O)C1(C)CCCC(C)(C)C1CC2O` (stereo not given)?
T/C (dose: 2.0 mg/kg/injection, schedule: Q01DX010 (ip), vehicle: carboxymethylcellulose (CMC)): 100 % of control; T/C (dose: 5.0 mg/kg/injection, schedule: Q01DX010 (ip), vehicle: carboxymethylcellulose (CMC)): 95 % of control; T/C (dose: 10.0 mg/kg/injection, schedule: Q01DX010 (ip), vehicle: carboxymethylcellulose (CMC)): 90 % of control; T/C (dose: 20.0 mg/kg/injection, schedule: Q01DX010 (ip), vehicle: carboxymethylcellulose (CMC)): 105 % of control

What does the source list for `COc1cc2cccccc-2cc1=O`?
T/C [5]: 110 % of control; T/C [6]: 115 % of control; T/C [7]: 115 % of control

Which T/C [5] does the source give for `CCOc1ccc(Br)cc1/C=C1\N=C(c2ccccc2)OC1=O` here?
Its T/C is 95 % of control.

And the T/C [6]?
The T/C was 100 % of control.

What about the T/C [7] of the same molecule?
The T/C was 95 % of control.

With `CC(C)CCC[C@@H](C)[C@H]1CC[C@H]2[C@@H]3CC=C4C[C@@H](Cl)CC[C@]4(C)[C@H]3CC[C@]12C` as the molecule, how does the T/C (dose: 50.0 mg/kg/injection, schedule: Q04DX003 (sc), vehicle: Klucel (hydroxypropylcellulose) (HPC)) read?
The T/C was 95 % of control.

What about the T/C (dose: 100.0 mg/kg/injection, schedule: Q04DX003 (sc), vehicle: Klucel (hydroxypropylcellulose) (HPC)) of the same molecule?
The T/C was 104 % of control.

And the T/C (dose: 200.0 mg/kg/injection, schedule: Q04DX003 (sc), vehicle: Klucel (hydroxypropylcellulose) (HPC))?
The T/C was 95 % of control.
